Assay results reported in US20210145830A1, “MATERIALS AND METHODS FOR TREATING CANCER” (Mayo Foundation for Medical Education and Research, priority 2018, published 2021).
“Also recorded” adds a separate entry of the source.

Key:
[1] = test system: Naïve T cells; assay: Naïve T cell proliferation assay (PMA/Ionomycin); assay type: cell-based; conditions: PMA 5 ng/ml + Ionomycin 0.1 μg/ml; TP0903 10-65 nM; 3 days
Procedure: FIG. 21A-E. TP0903 modulates naïve T cells function upon stimulation of PMA/Ionomycin in vitro. A. Naïve T cell proliferation assay in the presence of TP0903. Naïve T cells were stimulated with 5 ng/ml of PMA and 0.1 μg/ml of Ionomycin in the absence or in the increasing dose of TP0903 (10-65 nM) for 3 days. […] B. At the end of the expansion on day 3, T cells were stained with inhibitory receptors. […] C. Naïve T cell degranulation assay and cytokine production in the presence of TP0903. Naïve T cells were stimulated with 50 ng/ml of PMA and 1 μg/ml of Ionomycin for 4 hours in the presence of increasing doses of TP0903 (10-65 nM). […] D. Western blot analysis of p-LCK and GATA-3 inhibition by TP0903 in naïve T cells. Naïve T cells were stimulated with 5 ng/ml of PMA and 0.1 ug/ml of Ionomycin in the absence (DMSO) or in the increasing dose of TP0903 (10-65 nM) for 24 hours. […] was used as loading control. E. TP0903 specifically reduces regulatory T cells (Treg). Effector T cells (Teff) were isolated by negative selection using RoboSep™ Human T Cell Isolation Kit (Stemcell Technologies). Tregs were isolated by negative selection using the human CD4^+CD127^lowCD25^+ Treg isolation kit (Stemcell Technologies). Teff and Treg were stimulated with anti-CD3/CD28 beads and 400 U/ml of IL-2. At day 5, total T cells were evaluated via CountBright quantification.

[2] = test system: CART19; assay: CART19 cytokine release (Luminex) in the presence of TP0903; assay type: cell-based, human; conditions: for Th2 cytokines IL-4 and IL-5 / cytokine release syndrome (CRS) cytokines (MCP1, IL-6, IL-10, MIP-b): Jeko or CLL cells
Procedure: FIG. 7 contains an exemplary timeline for a cytokine assay in the presence of TP0903. UTDs or CART19 were incubated with Jeko in the presence of TP0903 in the 1 to 1 ratio. At day 3, supernatant was harvested and analyzed by 32-plex Luminex array.
FIG. 23. CART19 cytokine production in the presence of TP0903. CART19 cells or untransduced T cells were co-cultured with JeKo-1 cells or leukemic B cells derived from patients with chronic lymphocytic leukemia for 3 days and supernatants were analyzed for human cytokines (Luminex, 38-plex).
FIG. 27. CART19 cytokine production in the presence of TP-0903. CART19 cells or untransduced T cells were co-cultured with JeKo-1 cells (left heat map) or leukemic B cells (right heat map) derived from patients with chronic lymphocytic leukemia for 3 days, and supernatants were analyzed for human cytokines (Luminex, 38-plex).
Effector and target cells were incubated at a 1:1 ratio in T cell media for 24 or 72 hours as indicated. Supernatant was harvested and analyzed by 30-plex Luminex array according to the manufacturer's protocol (Millipore).
UTDs or CART19 were incubated with Jeko cell line or primary CLL cells in the presence of TP0903, at 1:1 ratio for 3 days (FIG. 7). At the end of the experiment, supernatant was harvested and analyzed for cytokines by 30-plex multiplex. […] TP0903 suppressed critical cytokines for the development of CRS after CART cell therapy (FIG. 10).

[3] = test system: CART19 cells; assay: Th2/Th1 T cell subtype analysis during CART19 expansion; assay type: cell-based; conditions: irradiated JeKo-1; TP0903 10-30 nM; day 3
Procedure: (§1) FIG. 22A-C. In vitro experiment for the combination of CART19 and TP0903. A. CART19 were cocultured at different effector-to-target ratio (E:T) with luciferase-positive JeKo-1. At 48 hours, cell killing was assessed by luminescence. […] The means and SEM are shown (**, p<0.005, *, p<0.05, one-way ANOVA analysis). n.s., not statistically significant. B. CART19 degranulation assay and cytokine production in the presence of TP0903. CART19 were cocultured with JeKo-1 for 4 hours in the presence of TP0903 doses of TP0903 (10-65 nM). […] C. Th2/Th1 T cell subtype analysis during CART19 expansion in the presence pf TP0903. CART19 cells were stimulated with lethally irradiated (120 Gy) JeKo-1 cell lines in the presence of increasing doses of TP0903 (10-30 nM). At the day 3, Th1 and Th2 cells were defined using CD4, CCR6, CCR4 and CXCR3 expression. […] The means and SEM are shown (*, p<0.05, one-way ANOVA analysis). n.s., not statistically significant.

[4] = test system: regulatory CART cells; assay: Regulatory CART cells in CART19 co-culture with targets; assay type: cell-based; conditions: increasing doses of TP0903; CART19 co-cultured with targets
From the text: FIG. 17. Increasing doses of TP0903 reduced regulatory CART cells when CART19 are co-cultured with their targets.

[5] = test system: CART19; assay: T cell degranulation and intracellular cytokine assays; assay type: cell-based
Procedure: as §1
Briefly, T cells were incubated with target cells at a 1:5 ratio. After staining for CAR expression, antibodies against CD107a, CD28, CD49d and monensin were added at the time of incubation. After 4 hours, cells were harvested and stained for CD3, CD4, and Live Dead staining (Invitrogen). Cells were fixed and permeabilized (FIX & PERM Cell Fixation & Cell Permeabilization Kit, Life Technologies) and intracellular cytokine staining was then performed as indicated in the specific experiments.
T cells were incubated with target cells at a 1:5 ratio (experiments were done using JEKO cells as well as primary B cells). Antibodies against CD107a, CD28, CD49d and monensin were added at the time of incubation.
After 4 hours, cells were harvested and stained for CD3, CD4, and Live Dead staining (Invitrogen). Cells were fixed and permeabilized (FIX & PERM Cell Fixation & Cell Permeabilization Kit, Life Technologies), and intracellular cytokine staining was then performed. […] The number of CD4 and CD8 cells positively stained for cluster of differentiation 107a (CD107a) or granulocyte-macrophage colony-stimulating factor (GM-CSF) in degranulation assays were shown in FIG. 5. The number of CD4 cells positively stained for interleukin-2 (IL-2) or interleukin-4 (IL-4) in degranulation assays were shown in FIG. 6.

[6] = 3 days, supernatant, listed as TP-0903
[7] = T cells:targets 1:5, JEKO or primary B cells, 4 hours

**Q.** For `CN1CCN(Cc2ccc(Nc3ncc(Cl)c(Nc4ccccc4S(=O)(=O)N(C)C)n3)cc2)CC1` [TP0903], which T cell expansion [1] is on record?
**A.** Its T cell expansion is “did not interfere”.

**Q.** What about the “CART Th1 specific cytokines (IFN-γ, TNF-α)” value ([2]; 1:1 with Jeko or primary CLL cells, 3 days, supernatant) of the same molecule?
**A.** The value was “only high doses (supra-physiological) suppressed; also recorded: maintains”.

**Q.** What about the IL-8 ([2]; JeKo-1 or CLL leukemic B cells, 3 days, Luminex 38-plex) of the same molecule?
**A.** Its IL-8 is “downregulated”.

**Q.** And the “cytokine production ability of IFN-γ, GM-CSF, TNF-α, and IL-2” value ([2]; JeKo-1 or CLL patient leukemic B cells, 3 days, Luminex 38-plex)?
**A.** The value was “maintained”.

**Q.** What about the “Th2 cytokines IL-4 and IL-5” value ([2]; 3 days, supernatant) of the same molecule?
**A.** Its value is “suppresses; also recorded: significantly downregulated”.

**Q.** And the “cytokine release syndrome (CRS) cytokines (MCP1, IL-6, IL-10, MIP-b)” value ([2]; 3 days, supernatant)?
**A.** Its value is “suppresses; also recorded: reduction; also recorded: remarkably downregulated”.

**Q.** And the “Th2 cytokines IL-4 and IL-5” value [2, 6]?
**A.** The value was “significantly downregulated”.

**Q.** And the “cytokine release syndrome (CRS) cytokines (MCP1, IL-6, IL-10, MIP-b)” value [2, 6]?
**A.** Its value is “remarkably downregulated”.

**Q.** What about the “Th polarization of CART cells” value ([2]; stimulated with JeKo or leukemic B cells from CLL patients) of the same molecule?
**A.** Its value is “polarization of CART cells into a Th1 phenotype”.

**Q.** And the “Th1/Th2 phenotype (CD4, CCR6, CCR4, CXCR3)” value [3]?
**A.** Its value is “major shift toward Th1 phenotype”.

**Q.** And the “regulatory CART cells” value [4]?
**A.** The value was “reduced”.

**Q.** And the “T cell specific degranulation or intracellular cytokines (CD107a, GM-CSF)” value ([5]; CD4 and CD8 cells)?
**A.** The value was “did not inhibit”.

**Q.** And the “activation of CART19 cells (CD107a degranulation, intracytoplasmic IL-2, IFN-γ, GM-CSF)” value ([5]; JeKo-1, 4 hours, TP0903 10-65 nM, presence or absence of TP0903)?
**A.** The value was “significant activation”.

**Q.** And the “secretion of IL-4” value ([5]; JeKo-1, 4 hours, increasing dose of TP0903 (10-65 nM))?
**A.** The value was “downregulated”.

**Q.** And the CART cell functions [5, 7]?
**A.** The CART cell functions was “did not impair”.

**Q.** And the “Th2 cytokines (intracellular staining)” value [5, 7]?
**A.** The value was “lowered”.
